Values of other authors in US20090081206A1, “METHOD AND PHARMACEUTICAL COMPOSITION FOR INHIBITING PREMATURE RAPTURE OF FETAL MEMBRANES, RIPENING OF UTERINE CERVIX AND PRETERM LABOR IN MAMMALS” (priority 1997, published 2009).
Like-named read-outs stand apart in the source and are kept apart here.

How the values were obtained:
[1] = in vivo
[2] = women with cervical Bishop score of 4-5
[3] = 3-mg intravaginal pessaries, mixed group of multigravidae and primigravidae
[4] = intravaginal tablets
[5] = not given; remark: listed apart in the source
[6] = for need for additional oxytocin: compared with 100% in placebo
[7] = severe pregnancy-induced hypertension
[8] = patches, only 13 cases studied
[9] = after single 3-mg suppository alone

Structure (SMILES) | plasma half-life [1] [min] | antidiuretic and pressor activity relative to vasopressin [%] | vaginal birth within 24 hours [2] | success rate for induced labor [3] [%] | patients induced successfully (achieving active labor) ([4]; multigravidae, 1-mg group) [%] | patients induced successfully (achieving active labor) ([4]; multigravidae, 5-mg group) [%] | patients induced successfully (achieving active labor) ([4]; primigravidae, 1-mg group) [%] | patients induced successfully (achieving active labor) ([4]; primigravidae, 5-mg group) [%] | mean time to labor [5, 9] [h] | patients in whom labor was achieved [5, 9] [%] | additional oxytocin augmentation needed ([5]; multifarious women) [%] | additional oxytocin augmentation needed ([5]; nulliparous women) [%] | established labor and delivered their infants without oxytocin augmentation ([6]; multigravidae, 2.5-mg vaginal suppositories) [%] | need for additional oxytocin ([6]; multigravidae) [%] | established labor and delivered their infants without oxytocin augmentation ([6]; primigravidae, 5-mg vaginal suppositories) [%] | need for additional oxytocin ([6]; primigravidae) [%] | treatment-to-delivery interval ([6]; shorter compared with controls) [h] | reduction of capillary wedge pressure [7] [%] | reduction of mean arterial blood pressure [7] [%] | suppression of preterm labor, safety and tolerability [8]
CC[C@H](C)[C@@H]1NC(=O)[C@H](Cc2ccc(O)cc2)NC(=O)[C@@H](N)CSSC[C@@H](C(=O)N2CCC[C@H]2C(=O)N[C@@H](CC(C)C)C(=O)NCC(N)=O)NC(=O)[C@H](CC(N)=O)NC(=O)[C@H](CCC(N)=O)NC1=O [oxytocin] | 5 to 17 | 1 | 8 of 19 | – | – | – | – | – | – | – | – | – | – | – | – | – | – | – | – | –
CCCCC[C@H](O)/C=C/[C@H]1[C@H](O)CC(=O)[C@@H]1C/C=C\CCCC(=O)O [PGE2, prostaglandin E2] | – | – | 17 of 19 | 55 | 39.1 | 62.2 | 29.6 | 62.9 | 1.5 | 98 | 14 | 71 | 81 | 19.1 | 63 | 37.5 | 7.6 to 11.6 | – | – | –
O=[N+]([O-])OCC(CO[N+](=O)[O-])O[N+](=O)[O-] [GTN, glycerol trinitrate] | – | – | – | – | – | – | – | – | – | – | – | – | – | – | – | – | – | 30 | 25 | safe, well-tolerated and non-invasive method of suppressing preterm labor
